# Patent US5424451A, “Process for preparing aminoalkylcarbamic esters of eseroline” (priority 1992, dated 1995)
# pIC50: −log10 of the molar value. Where two headings read alike, the source gives them in different places.
# Key:
# [1] = biological target: T1, acetylcholinesterase from human red blood cells (Homo sapiens, UniProt P22303); test: Inhibition of acetylcholinesterase from human erythrocyte (Ellman colorimetric method); format: biochemical; conditions: for Activity against human red blood cells acetylcholinesterase (in words): Table 2 results
# T1 construct: purchased Sigma Chemical; host or cells: human erythrocyte
# T1 sequence (P22303 32-617 isoform P22303-2 limits assumed): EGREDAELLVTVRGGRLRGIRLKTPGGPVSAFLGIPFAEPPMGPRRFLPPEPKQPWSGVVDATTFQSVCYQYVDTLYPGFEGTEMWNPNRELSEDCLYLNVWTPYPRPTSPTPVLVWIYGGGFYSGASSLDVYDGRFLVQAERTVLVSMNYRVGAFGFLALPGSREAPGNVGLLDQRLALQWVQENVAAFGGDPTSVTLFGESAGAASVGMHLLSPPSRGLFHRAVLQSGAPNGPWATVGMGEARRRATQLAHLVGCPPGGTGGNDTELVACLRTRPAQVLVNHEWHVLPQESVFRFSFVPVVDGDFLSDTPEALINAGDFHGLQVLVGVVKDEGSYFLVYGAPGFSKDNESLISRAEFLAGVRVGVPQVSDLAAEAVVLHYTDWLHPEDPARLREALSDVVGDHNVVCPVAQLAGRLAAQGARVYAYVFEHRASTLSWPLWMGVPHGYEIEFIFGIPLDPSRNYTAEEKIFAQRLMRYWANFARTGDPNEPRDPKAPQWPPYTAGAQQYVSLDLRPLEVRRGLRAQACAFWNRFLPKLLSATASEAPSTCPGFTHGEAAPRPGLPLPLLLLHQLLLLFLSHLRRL
# [2] = biological target: T2, butyrylcholinesterase from human serum (Homo sapiens, UniProt P06276); test: Inhibition of butyrylcholinesterase from human serum (Ellman colorimetric method); format: biochemical
# T2 construct: purchased Sigma Chemical; host or cells: human serum
# T2 sequence (P06276 29-602): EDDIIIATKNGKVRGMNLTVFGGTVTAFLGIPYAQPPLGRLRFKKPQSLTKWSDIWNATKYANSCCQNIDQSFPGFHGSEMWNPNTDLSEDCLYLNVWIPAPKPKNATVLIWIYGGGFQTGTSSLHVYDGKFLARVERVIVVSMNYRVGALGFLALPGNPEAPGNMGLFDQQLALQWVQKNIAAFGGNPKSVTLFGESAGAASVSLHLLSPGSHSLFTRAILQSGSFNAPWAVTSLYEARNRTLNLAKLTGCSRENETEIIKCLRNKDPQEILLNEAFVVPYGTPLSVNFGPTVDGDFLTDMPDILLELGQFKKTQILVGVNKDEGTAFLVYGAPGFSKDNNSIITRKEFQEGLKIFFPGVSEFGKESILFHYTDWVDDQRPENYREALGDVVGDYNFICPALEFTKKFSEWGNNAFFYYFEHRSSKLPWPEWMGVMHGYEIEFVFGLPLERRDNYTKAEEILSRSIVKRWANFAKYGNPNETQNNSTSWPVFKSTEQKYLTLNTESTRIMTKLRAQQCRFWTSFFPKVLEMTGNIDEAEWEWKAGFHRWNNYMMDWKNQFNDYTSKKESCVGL
# in vivo = conditions: rat, po
# [3] = biological target: T3, acetylcholinesterase from electric eel (Electrophorus electricus, UniProt O42275); test: biochemical
# T3 construct: purchased Sigma Chemical; host or cells: electric eel
# T3 sequence (O42275 24-633): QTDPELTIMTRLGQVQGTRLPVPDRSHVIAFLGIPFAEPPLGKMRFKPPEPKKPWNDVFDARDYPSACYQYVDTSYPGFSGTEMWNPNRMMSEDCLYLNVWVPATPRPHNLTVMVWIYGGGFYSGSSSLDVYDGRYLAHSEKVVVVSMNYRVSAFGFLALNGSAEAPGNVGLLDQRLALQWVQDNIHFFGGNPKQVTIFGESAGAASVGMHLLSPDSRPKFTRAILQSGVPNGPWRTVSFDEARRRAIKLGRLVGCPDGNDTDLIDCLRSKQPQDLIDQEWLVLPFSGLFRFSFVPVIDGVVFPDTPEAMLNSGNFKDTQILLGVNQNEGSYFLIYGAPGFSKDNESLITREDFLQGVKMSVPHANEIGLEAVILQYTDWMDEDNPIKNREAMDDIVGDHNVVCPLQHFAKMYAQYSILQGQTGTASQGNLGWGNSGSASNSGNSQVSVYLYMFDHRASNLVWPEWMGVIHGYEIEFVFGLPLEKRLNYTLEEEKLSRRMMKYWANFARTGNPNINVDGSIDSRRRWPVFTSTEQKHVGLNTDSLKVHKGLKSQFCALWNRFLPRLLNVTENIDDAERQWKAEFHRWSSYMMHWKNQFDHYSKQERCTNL
# [4] = Cholinesterase Inhibition IC50, AChE hRBC, contact time 30'
# [5] = Cholinesterase Inhibition IC50, AChE hRBC, contact time 60'
# [6] = contact time 10', read-out: Cholinesterase Inhibition IC50, AChE hRBC
# [7] = Cholinesterase Inhibition IC50, AChE hRBC, contact time 10'
# [8] = Cholinesterase Inhibition IC50, AChE E.eel, contact time 10'
# [9] = Cholinesterase Inhibition IC50, AChE E.eel, contact time 30'
SMILES,"pIC50 [1, 7]",Activity against human red blood cells acetylcholinesterase (in words) [1],also measured
"CN1CC[C@@]2(C)c3cc(OC(=O)NCCN4CCOCC4)ccc3N(C)[C@@H]12 [MF 214, N-morpholinylethylcarbamoyleseroline]",–,–,"pIC50 [1, 4]: 6.85; pIC50 [1, 5]: 6.96; pIC50 [1, 6]: 6.15; pIC50 [2]: 5.39"
CN1CC[C@@]2(C)c3cc(OC(=O)NCCCCCCCCCCCCN4CCCCC4)ccc3N(C)[C@@H]12 [MF 249],7.30,Particularly active,–
"CN1CCN(CCCCCCCCNC(=O)Oc2ccc3c(c2)[C@]2(C)CCN(C)[C@@H]2N3C)CC1 [MF 230, N-(N-methylpiperazinyloctyl)carbamoyleseroline]",7.52,Particularly active,"pIC50 [1, 4]: 7.30; LD50 (in vivo): 27.7 mg/kg; pIC50 [3, 8]: 6.70; pIC50 [3, 9]: 7.10"
CN1CC[C@@]2(C)c3cc(OC(=O)NCCCCCCCCN4CCC5(CC4)OCCO5)ccc3N(C)[C@@H]12 [MF 265],7.10,Particularly active,–
CC(=O)N1CCN(CCNC(=O)Oc2ccc3c(c2)[C@]2(C)CCN(C)[C@@H]2N3C)CC1 [MF 246],4.70,–,–
CN1CC[C@@]2(C)c3cc(OC(=O)NCCCCCCCCCCN4CCOCC4)ccc3N(C)[C@@H]12 [MF 231],–,Particularly active,"pIC50 [1, 6]: 7.40; LD50 (in vivo): 40 mg/kg; pIC50 [3, 8]: 7.22"
CN1CC[C@@]2(C)c3cc(OC(=O)NCCCCCCCCN4CCN(Cc5ccccc5)CC4)ccc3N(C)[C@@H]12 [MF 266],7.15,Particularly active,–
CCN1CCN(CCCCCCCCNC(=O)Oc2ccc3c(c2)[C@]2(C)CCN(C)[C@@H]2N3C)CC1 [MF 262],7.52,Particularly active,–
CCCN(CCC)CCCCCCCCNC(=O)Oc1ccc2c(c1)[C@]1(C)CCN(C)[C@@H]1N2C [MF 256],7.10,Particularly active,LD50 (in vivo): 18.3 mg/kg
"C[C@@H]1CN(CCCCCCCCNC(=O)Oc2ccc3c(c2)[C@]2(C)CCN(C)[C@@H]2N3C)C[C@H](C)O1 [MF 268, 8-(cis-2,6-dimethylmorpholinyl)octylcarbamoyl eseroline]",7.15,Particularly active,LD50 (in vivo): 56 mg/kg; pIC50 [2]: 6.74
CCCN(CCC)CCCCCCCCCCNC(=O)Oc1ccc2c(c1)[C@]1(C)CCN(C)[C@@H]1N2C [MF 257],7.52,Particularly active,–
CC(=O)N1CCN(CCCCCCCCCCCCNC(=O)Oc2ccc3c(c2)[C@]2(C)CCN(C)[C@@H]2N3C)CC1 [MF 275],7.30,–,–
CN1CCN(CCCCCCCCCCNC(=O)Oc2ccc3c(c2)[C@]2(C)CCN(C)[C@@H]2N3C)CC1 [MF 255],7.30,Particularly active,–
CCN(CC)CCCCCCCCCCCCNC(=O)Oc1ccc2c(c1)[C@]1(C)CCN(C)[C@@H]1N2C [MF 254],7.30,Particularly active,–
CCN(CC)CCCCCCCCNC(=O)Oc1ccc2c(c1)[C@]1(C)CCN(C)[C@@H]1N2C [MF 237],6.96,Particularly active,"pIC50 [1, 4]: 7.15; pIC50 [1, 5]: 7.52; pIC50 [3, 8]: 6.47; pIC50 [3, 9]: 6.72; pIC50 ([3]; Cholinesterase Inhibition IC50, AChE E.eel, contact time 60'): 6.92"
CCCN(CCC)CCCCCCCCCCCCNC(=O)Oc1ccc2c(c1)[C@]1(C)CCN(C)[C@@H]1N2C [MF 258],6.00,–,–
CN1CCN(C(=O)CCCCCNC(=O)Oc2ccc3c(c2)[C@]2(C)CCN(C)[C@@H]2N3C)CC1 [MF 245],5.26,–,–
CCCN1CCN(CCCCCCCCNC(=O)Oc2ccc3c(c2)[C@]2(C)CCN(C)[C@@H]2N3C)CC1 [MF 261],7.70,Particularly active,–
CC(=O)N1CCN(CCCCCCCCNC(=O)Oc2ccc3c(c2)[C@]2(C)CCN(C)[C@@H]2N3C)CC1 [MF 240],6.62,–,–

SMILES,"pIC50 [1, 7]",Activity against human red blood cells acetylcholinesterase (in words) [1],also measured
CN1CC[C@@]2(C)c3cc(OC(=O)NCCCCCCCCN4CCSCC4)ccc3N(C)[C@@H]12 [MF 239],7.30,Particularly active,LD50 (in vivo): 23.8 mg/kg
CCN(CC)CCCCCCCCCCNC(=O)Oc1ccc2c(c1)[C@]1(C)CCN(C)[C@@H]1N2C [MF 247],7.77,Particularly active,–
CC(C)CN1CCN(CCCCCCCCNC(=O)Oc2ccc3c(c2)[C@]2(C)CCN(C)[C@@H]2N3C)CC1 [MF 270],7.22,–,–
CN1CC[C@@]2(C)c3cc(OC(=O)NCCCCCCCC(=O)N4CCOCC4)ccc3N(C)[C@@H]12 [MF 269],6.92,–,–
CN(CCCCCCCCNC(=O)Oc1ccc2c(c1)[C@]1(C)CCN(C)[C@@H]1N2C)c1ccccc1 [MF 263],7.30,Particularly active,–
"CN1CC[C@@]2(C)c3cc(OC(=O)NCCCN4CCOCC4)ccc3N(C)[C@@H]12 [MF 218, N-morpholinylpropylcarbamoyleseroline]",–,–,"pIC50 [1, 6]: 5.42"
"C[C@@H]1CN(CCCCCCCCNC(=O)Oc2ccc3c(c2)[C@]2(C)CCN(C)[C@@H]2N3C)C[C@@H](C)O1 [MF 276, 8-(trans-2,6-dimethyl)morpholinyloctylcarbamoyl eseroline]",–,Particularly active,"pIC50 ([1]; read-out: Cholinesterase Inhibition IC50, AChE hRBC, contact time 10'): 7.15; pIC50 ([2]; read-out: Cholinesterase Inhibition IC50, BuChE hserum, contact time 10'): 6.60"
CN1CC[C@@]2(C)c3cc(OC(=O)NCCCCCCCCCN4CCOCC4)ccc3N(C)[C@@H]12 [MF 233],–,Particularly active,"pIC50 [1, 6]: 7.22; pIC50 ([3]; read-out: Cholinesterase Inhibition IC50, AChE E.eel, contact time 10'): 6.85"
CCCCN1CCN(CCCCCCCCNC(=O)Oc2ccc3c(c2)[C@]2(C)CCN(C)[C@@H]2N3C)CC1 [MF 273],7.52,Particularly active,–
COCCN(CCCCCCCCNC(=O)Oc1ccc2c(c1)[C@]1(C)CCN(C)[C@@H]1N2C)CCOC [MF 271],7.30,Particularly active,–
"CN(CCCCCCCCN1CCOCC1)C(=O)Oc1ccc2c(c1)[C@]1(C)CCN(C)[C@@H]1N2C [MF 243, N-(morpholinyloctyl),N-methyl carbamoyl eseroline]",5.13,–,–
CN1CC[C@@]2(C)c3cc(OC(=O)NCCCCCCCCCCCN4CCOCC4)ccc3N(C)[C@@H]12 [MF 232],–,–,"pIC50 [1, 6]: 7.40; pIC50 [3, 8]: 7.15"
"CN1CC[C@@]2(C)c3cc(OC(=O)NCCCCCCCCN4CCCC4)ccc3N(C)[C@@H]12 [MF 251, N-pyrrolidinyloctylcarbamoyleseroline]",7.15,Particularly active,–
"CN1CC[C@@]2(C)c3cc(OC(=O)NCCCCCCCCN4CCCCC4)ccc3N(C)[C@@H]12 [MF 241, N-piperidinyloctylcarbamoyleseroline]",7.00,Particularly active,–
CN1CCN(CCCCCCCCCCCCNC(=O)Oc2ccc3c(c2)[C@]2(C)CCN(C)[C@@H]2N3C)CC1 [MF 229],7.22,Particularly active,"pIC50 [3, 8]: 7.40"
CC(=O)N1CCN(CCCCCCCCCCNC(=O)Oc2ccc3c(c2)[C@]2(C)CCN(C)[C@@H]2N3C)CC1 [MF 252],7.57,Particularly active,–
CN1CC[C@@]2(C)c3cc(OC(=O)NCCCCCCCCCCN4CCCCC4)ccc3N(C)[C@@H]12 [MF 248],7.72,Particularly active,LD50 (in vivo): 15.3 mg/kg
CN1CC[C@@]2(C)c3cc(OC(=O)NCCCCCCCCN4CC=CC4)ccc3N(C)[C@@H]12 [MF 250],7.52,–,–
CN1CC[C@@]2(C)c3cc(OC(=O)NCCCCCCCCCCN4CCCC4)ccc3N(C)[C@@H]12 [MF 253],7.52,Particularly active,–
